According to US9131648B2, “Genes encoding chavicol/eugenol synthase from the creosote bush Larrea tridentata” (Washington State University, priority 2006, dated 2015):
“Also recorded” adds a separate entry of the source. Read-outs that look alike come from different tables or passages of the source.

Legend:
[1] = biological target: T1, LtPLRh1 (LtCES1) (Larrea tridentata, UniProt V5NR15); assay: LtPLRh1 (LtCES1) chavicol/eugenol synthase assays, kinetic parameters for monolignol ester substrates; format: biochemical; conditions: for Km values / Vmax values: PLR homologue in the creosote bush; for Vmax / kcat: Table 2, LtPLRh1 apparent
Procedure: (§1) Enzymatic assays. All assays were performed at 30° C. in 250 μl of the corresponding buffered solutions (at 100 mM buffer concentration) containing 0.5 μg […]1) Rh1 and 1.0 mM NADPH, and were terminated by addition of 25 μl glacial acetic acid and freezing. […] Assays were carried out for 1 to 120 min; controls included both boiled enzyme extracts and omission of substrates. Kinetic parameters (Km and Vmax): Three sets of triplicate assays were carried out for 5 min in Bis-Tris propane buffer at pH 7.55, and contained different concentrations of p-coumaryl acetate (48), p-coumaryl coumarate (50) or coniferyl acetate (49) (3.2 μM-1 mM).

[2] = biological target: T1, LtPLRh1 (LtCES1); assay: In vitro test of LtPLRh1 with PLR, PCBER and IFR substrates; format: biochemical
[3] = tested on: basil CS/ES and petunia IES; conditions: range over basil CS/ES and petunia IES, cited from earlier work
[4] = biological target: T2, PhIGS1 (Petunia hybrida, UniProt Q15GI3); conditions: cited from earlier work; for Vmax / kcat: PhIGS1
T2 sequence (Q15GI3 1-323): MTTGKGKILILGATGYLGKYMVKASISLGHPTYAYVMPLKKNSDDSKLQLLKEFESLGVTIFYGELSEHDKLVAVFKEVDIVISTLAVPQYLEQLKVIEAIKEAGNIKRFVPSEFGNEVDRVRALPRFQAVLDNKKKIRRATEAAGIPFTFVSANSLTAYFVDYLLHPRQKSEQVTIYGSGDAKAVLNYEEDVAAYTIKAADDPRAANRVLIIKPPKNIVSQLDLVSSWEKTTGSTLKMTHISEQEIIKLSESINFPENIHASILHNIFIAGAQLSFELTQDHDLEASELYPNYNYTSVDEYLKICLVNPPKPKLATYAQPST

[5] = biological target: T3, ObEGS1 (Ocimum basilicum, UniProt Q15GI4); conditions: cited from earlier work; for Vmax / kcat: ObEGS1
T3 sequence (Q15GI4 1-314): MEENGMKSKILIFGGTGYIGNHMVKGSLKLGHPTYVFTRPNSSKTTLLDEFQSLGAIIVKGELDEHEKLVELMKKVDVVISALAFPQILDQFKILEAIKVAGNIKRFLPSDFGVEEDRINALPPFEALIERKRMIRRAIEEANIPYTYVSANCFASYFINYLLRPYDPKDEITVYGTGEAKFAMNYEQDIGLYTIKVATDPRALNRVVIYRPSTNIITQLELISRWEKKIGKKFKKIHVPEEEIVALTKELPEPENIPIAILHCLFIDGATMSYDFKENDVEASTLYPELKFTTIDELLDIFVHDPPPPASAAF

[6] = biological target: T4, PLR_Tp1 (Thuja plicata, UniProt Q9LD14); conditions: Kim et al., manuscript in preparation (34), cited from earlier work
T4 sequence (Q9LD14 1-313): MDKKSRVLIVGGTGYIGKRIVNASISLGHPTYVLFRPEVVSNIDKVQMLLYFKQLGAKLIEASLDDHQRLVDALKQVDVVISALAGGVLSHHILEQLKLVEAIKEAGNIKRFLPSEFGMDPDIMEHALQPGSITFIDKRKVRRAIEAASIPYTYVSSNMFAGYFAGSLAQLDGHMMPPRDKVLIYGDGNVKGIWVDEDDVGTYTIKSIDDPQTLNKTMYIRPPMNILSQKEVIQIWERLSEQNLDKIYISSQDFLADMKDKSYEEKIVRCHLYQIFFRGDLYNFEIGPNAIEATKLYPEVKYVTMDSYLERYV

[7] = substrate: CC(=O)OC/C=C/c1ccc(O)cc1; assay: LtPLRh1 (LtCES1) chavicol/eugenol synthase assays, kinetic parameters for monolignol ester substrates; format: biochemical, Larrea tridentata; conditions: other: Table 1, Bis-Tris propane pH 7.55, 30° C., 1.0 mM NADPH, apparent values
Procedure: as §1

[8] = substrate: COc1cc(/C=C/COC(C)=O)ccc1O; assay: as above; format: biochemical, Larrea tridentata; conditions: other: Table 1, Bis-Tris propane pH 7.55, 30° C., 1.0 mM NADPH, apparent values
Procedure: as §1

[9] = substrate: O=C(/C=C/c1ccc(O)cc1)OC/C=C/c1ccc(O)cc1; assay: as above; format: biochemical, Larrea tridentata; conditions: other: Table 1, Bis-Tris propane pH 7.55, 30° C., 1.0 mM NADPH, apparent values
Procedure: as §1

[10] = Characterisation of recombinant LtPLRh1: pH optimum and efficiency versus homologues; format: biochemical, Larrea tridentata; conditions: from previously reported kinetic parameters (26)
Procedure: Enzymatic assays. All assays were performed at 30° C. in 250 μl of the corresponding buffered solutions (at 100 mM buffer concentration) containing 0.5 μg LtPL LtPLRh1 (LtCES1) Rh1 and 1.0 mM NADPH, and were terminated by addition of 25 μl glacial acetic acid and freezing. Chavicol/eugenol synthase activity assays were individually performed in Bis-Tris propane buffer (pH 7.55) containing 0.4 mM p-coumaryl coumarate (50), p-coumaryl acetate (48) or coniferyl acetate (49). Assays were carried out for 1 to 120 min; controls included both boiled enzyme extracts and omission of substrates.
Kinetic parameters (Km and Vmax): Three sets of triplicate assays were carried out for 5 min in Bis-Tris propane buffer at pH 7.55, and contained different concentrations of p-coumaryl acetate (48), p-coumaryl coumarate (50) or coniferyl acetate (49) (3.2 μM-1 mM).

In the case of O=C(/C=C/c1ccc(O)cc1)OC/C=C/c1ccc(O)cc1 [p-coumaryl coumarate (50), p-coumaryl coumarate], the Km values [1] is reported as “a few hundred”, the Vmax values [1] is reported as “a few hundred” and the Vmax [1] is reported as 75 pkat/μg. It also gave a kcat [1] of 2.55 s⁻¹.

With COc1cc([C@H]2O[C@@H](c3ccc(O)c(OC)c3)[C@H](C)[C@@H]2C)ccc1O [nectandrin B (72), nectandrin B] the “activity of LtPLRh1 towards the compound as substrate” value (shortened to “activity … as substrate”) [2] was “at best marginal activity; also recorded: do not serve as substrates”.

With COc1cc(/C=C/COC(C)=O)ccc1O [coniferyl acetate (49), coniferyl acetate] the “efficiency of reduction by LtPLRh1 relative to reported homologues in basil and petunia” value [1] was greater than 100 fold, the Km values [1] was “a few hundred” and the Vmax values [1] was “a few hundred”. The Vmax [1] was 190 pkat/μg, the kcat [1] was 6.46 s⁻¹ and the Vmax [3] was 7-20 pkat μg^−1 protein. The Km ([3]; read-out: substrate affinities (Km)) was 1600 to 5100 µM, the Km ([4]; Table 1, PhIGS1, Koeduka et al. 2006) was 1600 µM and the Vmax ([4]; Table 1) was 7 pkat μg^−1 prot. For the same molecule, the kcat ([4]; Table 1) was 0.3 s⁻¹, the Km ([4]; Table 2, PhIGS1, as reported in (26)) was 1600 µM and the Vmax ([4]; Table 2) was 7 pkat/μg. The kcat ([4]; Table 2) was 0.3 s⁻¹, the Km ([5]; Table 1, ObEGS1, Koeduka et al. 2006) was 5100 µM and the Vmax ([5]; Table 1) was 20 pkat μg^−1 prot. For the same molecule, the kcat ([5]; Table 1) was 0.7 s⁻¹, the Km ([5]; Table 2, ObEGS1, as reported in (26)) was 5100 µM and the Vmax ([5]; Table 2) was 20 pkat/μg. The kcat ([5]; Table 2) was 0.7 s⁻¹.

For COc1ccc(-c2coc3cc(O)cc(O)c3c2=O)cc1 [biochanin A (74), biochanin A], the “activity … as substrate” value [2] was “at best marginal activity; also recorded: do not serve as substrates”.

For C[C@@H]1[C@H](C)[C@@H](c2ccc(O)cc2)O[C@@H]1c1ccc(O)cc1 [larreatricin (62), larreatricin], the “activity … as substrate” value [2] was “at best marginal activity”.

With COc1cc(C2Oc3c(OC)cc(/C=C/CO)cc3C2CO)ccc1O (centres unmarked) [dehydrodiconiferyl alcohol (56), dehydrodiconiferyl alcohol] the “activity … as substrate” value [2] was “at best marginal activity”.

For C/C=C/c1cc(OC)c2c(c1)[C@H](C)[C@@H](c1ccc(O)c(OC)c1)O2 [licarin A (64), licarin A], the “activity … as substrate” value [2] was “at best marginal activity”.

For pinoresinol [pinoresinol (54)], the “PLR-catalyzed reduction (serves as substrate)” value (“PLR-catalyzed reduction” for short) [6] is listed as “uses several p-hydroxylated phenylpropanoid substrates” and the “activity … as substrate” value [2] is listed as “at best marginal activity”.

For COc1cc([C@H]2OC[C@H]3[C@@H]2CO[C@@H]3c2cc(OC)c(O)c(OC)c2)cc(OC)c1O [syringaresinol (70), syringaresinol], the “PLR-catalyzed reduction” value [6] is listed as “uses several p-hydroxylated phenylpropanoid substrates; also recorded: additional PLR substrates”.

With CC(=O)OC/C=C/c1ccc(O)cc1 [p-coumaryl acetate (48), p-coumaryl acetate] the Km values [1] was “a few hundred”, the Vmax values [1] was “a few hundred” and the Vmax [1] was 200 pkat/μg. The kcat [1] was 6.80 s⁻¹.

In the case of COc1cc([C@H]2OC[C@@H]3C(c4cc(OC)c(O)c(OC)c4)OC[C@H]23)ccc1O (some centres unmarked) [medioresinol (69), medioresinol], the “PLR-catalyzed reduction” value [6] is given as “uses several p-hydroxylated phenylpropanoid substrates” and the “PLR-catalyzed reduction” value ([6]; listed as Medioresinol (69)) is given as “additional PLR substrates”.

For c1cc2c(cc1[C@H]1OC[C@H]3[C@@H]1CO[C@@H]3c1ccc3c(c1)OCO3)OCO2 [sesamin (71), sesamin], the “PLR-catalyzed reduction” value [6] is listed as “fails to reduce; also recorded: does not undergo PLR-catalyzed reduction”.

With O=c1c(-c2ccc(O)cc2)coc2cc(O)cc(O)c12 [genistein (73), genistein] the “activity … as substrate” value [2] was “at best marginal activity; also recorded: do not serve as substrates”.

B1: LtPLRh1 (LtCES1) (Larrea tridentata) (protein)
chain: MAQKSKILIIGGTGYIGKFVVEASAKAGRPTFALVRESTVSDPVKGKLIANFKNLGVNILHGDLNDHESLVKAIKKVDVVISTVGNFQIADQVKIIAAIKAAGNVKRFFPSEFGNDVDRTHAVEPAKSTFEMKAQLRRTIEAEGIPYTYVSSNFFAGYFLPVLGQVGVTAPPRDKVTILGDGNQKAVFNKEDDIGTYTIRAADDPRTLNKILYIRPPRNTYSMNELVALWEKKIGKTLEKTYVPEEQLLKNIQEAEIPWNVVLAINHSVFVKGDHTNFAIKPSFGVEASELYPDVKYTTVEEYLSQFV
Work on B1 yielded a Km [7] of 350 µM, a Vmax [7] of 12 µmol/min/mg and a kcat [7] of 6.8 s⁻¹. It also gave a kcat/Km [7] of 19500 M⁻¹ s⁻¹, a Km [8] of 290 µM and a Vmax [8] of 11.4 µmol/min/mg. For the same molecule, the kcat [8] was 6.46 s⁻¹, the kcat/Km [8] was 22000 M⁻¹ s⁻¹ and the Km [9] was 210 µM. It also gave a Vmax [9] of 4.5 µmol/min/mg, a kcat [9] of 2.55 s⁻¹ and a kcat/Km [9] of 12000 M⁻¹ s⁻¹.

B2: LtPLRh1: pinoresinol-lariciresinol reductase homologue from Larrea tridentata, chavicol/eugenol synthase, SEQ ID NO:2, recombinant 34 kDa (protein)
chain: B1 chain
modifications: Larrea tridentate
With B2 the “efficiency/activity relative to the enzymes reported in basil and petunia” value [10] was greater than 100 fold and the “efficiency/activity relative to the enzymes reported in basil and petunia” value ([10]; listed as LtPLRh1 (LtCES1)) was “over 100 fold”.
